Assay results published in patent publication US20240174634A1, “Aldehyde Dehydrogenase Inhibitors and Their Therapeutic Use” (priority 2020, published 2024).

Tests used:
[1] = biological target: T1, ALDH1A2 (Homo sapiens, UniProt O94788); test: Selectivity biochemical assay, NAD(P)H-Glo Detection System
T1 construct: His-tag; made in house; host or cells: E. coli Rosetta (DE3)
T1 sequence (O94788 1-518): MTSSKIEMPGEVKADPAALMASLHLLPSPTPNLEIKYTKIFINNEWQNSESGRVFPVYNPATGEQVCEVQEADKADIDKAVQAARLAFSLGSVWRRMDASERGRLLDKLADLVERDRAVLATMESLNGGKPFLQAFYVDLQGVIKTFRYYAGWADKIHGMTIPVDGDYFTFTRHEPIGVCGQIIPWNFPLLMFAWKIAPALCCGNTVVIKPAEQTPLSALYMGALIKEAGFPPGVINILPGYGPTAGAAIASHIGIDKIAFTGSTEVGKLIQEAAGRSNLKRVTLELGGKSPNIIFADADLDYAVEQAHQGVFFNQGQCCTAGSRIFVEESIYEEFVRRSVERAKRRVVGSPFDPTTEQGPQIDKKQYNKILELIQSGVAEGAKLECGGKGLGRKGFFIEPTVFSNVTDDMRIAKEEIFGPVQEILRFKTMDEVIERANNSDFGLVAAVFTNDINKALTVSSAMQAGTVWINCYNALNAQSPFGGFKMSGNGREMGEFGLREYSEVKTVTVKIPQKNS
Excerpt: (§1) Cloning: Open reading frames corresponding to the protein coding sequences of full length human ALDH1A1 (Uniprot ID P00352), ALDH1A2 (094788) and ALDH1A3 (P47895) were polymerase chain reaction (PCR) amplified from human cDNA and inserted into the multi-cloning sites of the commercially available (Novagen) E. coli expression vectors pET47b (ALDH1A1, EcoRI restriction site; ALDH1A2, BamHI and EcoRI sites) or pET28a (ALDH1A3, NdeI and BamHI sites), using standard molecular genetic techniques. Recombinant DNA products were sequence verified prior to use in expression studies.
(§2) Expression: Expression constructs were transformed into the E. coli strain Rosetta (DE3) (Merck) and individual colonies used to inoculate 10 mL lysogen broth (LB) medium supplemented with kanamycin and chloramphenicol at 50 μg/mL and 34 μg/mL, respectively. Cultures were grown to saturation overnight at 37° C., prior to being used to sub-inoculate fresh 1 L LB medium cultures (plus antibiotics, as before). 1 L cultures were grown at 37° C., 200 rpm, throughout the day until the optical density at 600 nm (OD600) reached ˜0.8, at which point growth temperature was reduced to 18° C. and 1 mM isopropyl β-d-1-thiogalacto pyranoside (IPTG) added to induce protein expression.
(§3) Cultures were left overnight (at least 16 h) under these conditions and the following day harvested by centrifugation (4000 G, 10 minutes). Culture supernatant was discarded and cell pellets stored at −80° C. until further processing.
(§4) Purification: Cell pellets were thawed on ice, re-suspended in Ni Affinity Buffer A (20 mM HEPES pH 7.5, 300 mM NaCl, 20 mM imidazole, 1 mM tris(2-carboxyethyl)phosphine (TCEP)) with protease inhibitors (cOmplete Ultra protease inhibitor, Roche), and lysed by sonication. Lysates were clarified by centrifugation at 18,000 G, 4° C., for 40 minutes, and loaded directly onto a pre-equilibrated (Buffer A) 5 mL HisTrap Fast Flow column (GE Healthcare) by way of an AKTA Fast Protein Liquid Chromatography (FPLC) system. The column was sequentially treated with 6 column volumes (CV) 100% Buffer A, 8 CV of 90% Buffer A:10% Buffer B (20 mM 4-(2-hydroxyethyl)-1-piperazineethanesulfonic acid (HEPES) pH 7.5, 300 mM NaCl, 500 mM imidazole, 1 mM TCEP) and finally a linear gradient from 10-70% Buffer B over 8 CV to elute recombinant His-tagged protein. Relevant fractions (as measured by 280 nm absorbance) collected during elution were pooled and subjected to further purification by size exclusion chromatography (Superdex 200 26/600, GE Healthcare, running buffer 20 mM 2-(carbamoylmethylamino)ethanesulfonic acid (ACES) pH 7.5, 1 mM TCEP). Relevant fractions from this step were pooled, aliquoted, and stored at −80° C. until required for compound profiling assays.
(§5) Materials: ALDH2 was purchased from Abnova. Tris(hydroxymethyl)aminomethane (Tris) was purchased from MP Biomedicals. TCEP, ethylenediaminetetraacetic acid (EDTA), propionaldehyde, DMSO and Tween-20 were purchased from Sigma. Nicotinamide adenine dinucleotide (NAD) was obtained from Abcam. The NAD(P)H-Glo™ Detection System was purchased from Promega. White, non-binding surface, 384 well plates were supplied by Corning (#3574).
(§6) Method: Inhibition of ALDH1A3 was assessed using the NAD(P)H-Glo™ Detection System (Cat. No. G9062) from Promega. This assay detects the production of NADH from NAD by ALDH1A3 via the coupled enzymatic conversion of a proluciferin reductase substrate to generate a luminescent signal. Inhibition of ALDH1A3 by small molecule inhibitors will result in reduction or abrogation of luminescence signal increase above background. Inhibition of ALDH1A1, ALDH1A2 and ALDH2 (selectivity assays) were assessed using the same assay.
(§7) Compounds were dosed into Corning 384 well assay plates using an Echo acoustic dispenser to give 10 point curves in a 3-fold dilution series. Compounds were dispensed from a 20 mM DMSO stock and initially screened at a top concentration of 20 μM (ALDH1A3) or 250 μM (ALDH1A1, ALDH1A2 & ALDH2). […]

[2] = biological target: T2, ALDH1A1 (Homo sapiens, UniProt P00352); test: as above
T2 construct: His-tag; made in house; host or cells: E. coli Rosetta (DE3)
T2 sequence (P00352 1-501): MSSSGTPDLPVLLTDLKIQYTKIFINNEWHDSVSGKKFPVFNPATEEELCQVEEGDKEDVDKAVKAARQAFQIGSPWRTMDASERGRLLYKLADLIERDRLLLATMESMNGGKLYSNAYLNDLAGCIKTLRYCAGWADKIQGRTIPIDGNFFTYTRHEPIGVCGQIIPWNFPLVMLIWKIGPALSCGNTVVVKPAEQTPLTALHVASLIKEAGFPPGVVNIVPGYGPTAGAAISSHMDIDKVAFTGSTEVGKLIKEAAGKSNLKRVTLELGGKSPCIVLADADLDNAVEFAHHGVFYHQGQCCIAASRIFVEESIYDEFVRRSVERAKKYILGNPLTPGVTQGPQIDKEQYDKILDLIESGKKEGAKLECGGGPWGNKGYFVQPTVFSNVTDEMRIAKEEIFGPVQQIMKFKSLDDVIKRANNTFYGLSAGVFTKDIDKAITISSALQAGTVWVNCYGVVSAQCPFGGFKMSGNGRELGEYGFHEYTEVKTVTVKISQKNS
Excerpt: as §1, §2, §3, §4, §5, §6, §7

SMILES	IC50 [1]	IC50 [2]
Cc1ccccc1C1CCCN1CCOc1ccc2c(c1)CCC(=O)N2 (stereo not shown) [ALDHI-2012, 6-[2-[2-(o-tolyl)pyrrolidin-1-yl]ethoxy]-3,4-dihydro-1H-quinolin-2-one]	≥ 100 µM	≥ 100 µM
O=C1CCc2cc(OCCN3CC(O)CC3c3cccc(F)c3)ccc2N1 (mixture of isomers) [ALDHI-2035, 6-[2-[2-(3-fluorophenyl)-4-hydroxy-pyrrolidin-1-yl]ethoxy]-3,4-dihydro-1H-quinolin-2-one]	0.1 to 1 µM	10 to 100 µM
O=C1CCc2cc(OCCN3CCCC3c3cc(F)cc(F)c3)ccc2N1 (stereo not shown) [ALDHI-2032, 6-[2-[2-(3,5-difluorophenyl)pyrrolidin-1-yl]ethoxy]-3,4-dihydro-1H-quinolin-2-one]	0.1 to 1 µM	10 to 100 µM
O=C1CCc2cc(OCCN3CCC[C@@H]3c3cccc(F)c3)ccc2N1 [ALDHI-2007, 6-[2-[(2R)-2-(3-fluorophenyl)pyrrolidin-1-yl]ethoxy]-3,4-dihydro-1H-quinolin-2-one]	0.1 to 1 µM	≥ 100 µM
Cc1ccc(C2CCCN2CCOc2ccc3c(c2)CCC(=O)N3)cn1 (stereo not shown) [ALDHI-2030, 6-[2-[2-(6-methyl-3-pyridyl)pyrrolidin-1-yl]ethoxy]-3,4-dihydro-1H-quinolin-2-one]	10 to 100 µM	≥ 100 µM
COc1cccc(C2CCCN2CCOc2ccc3c(c2)CCC(=O)N3)c1 (stereo not shown) [ALDHI-2034, 6-[2-[2-(3-methoxyphenyl)pyrrolidin-1-yl]ethoxy]-3,4-dihydro-1H-quinolin-2-one]	10 to 100 µM	≥ 100 µM
CC1(c2ccccc2)COCCN1CCOc1ccc2c(c1)CCC(=O)N2 (stereo not shown) [ALDHI-2040, 6-[2-(3-methyl-3-phenyl-morpholin-4-yl)ethoxy]-3,4-dihydro-1H-quinolin-2-one]	0.1 to 1 µM	≥ 100 µM
O=C1CCc2cc(NC(=O)c3ccccc3-c3cccc(F)c3)ccc2N1 [ALDHI-1007, 3′-fluoro-N-(2-oxo-1,2,3,4-tetrahydroquinolin-6-yl)-[1,1′-biphenyl]-2-carboxamide]	1 to 10 µM	≥ 100 µM
O=C1CCc2cc(OCCN3CCOCC3c3cccc(F)c3)ccc2N1 (stereo not shown) [ALDHI-2031, 6-[2-[3-(3-fluorophenyl)morpholin-4-yl]ethoxy]-3,4-dihydro-1H-quinolin-2-one]	0.1 to 1 µM	≥ 100 µM
CN(CCOc1ccc2c(c1)CCC(=O)N2)C(=O)c1cccnc1 [ALDHI-3013, N-methyl-N-[2-[(2-oxo-3,4-dihydro-1H-quinolin-6-yl)oxy]ethyl]pyridine-3-carboxamide]	≥ 100 µM	≥ 100 µM
O=C1CCc2cc(NC(=O)c3ncsc3-c3ccsc3)ccc2N1 [ALDHI-1011, N-(2-oxo-3,4-dihydro-1H-quinolin-6-yl)-5-(3-thienyl)thiazole-4-carboxamide]	1 to 10 µM	≥ 100 µM
O=C1CCc2cc(OCCN3CCCC3c3ccsc3)ccc2N1 (stereo not shown) [ALDHI-2014, 6-[2-[2-(3-thienyl)pyrrolidin-1-yl]ethoxy]-3,4-dihydro-1H-quinolin-2-one]	≥ 100 µM	≥ 100 µM
CC1(C)Oc2cc(OCCN3CCCC3c3cccc(F)c3)ccc2NC1=O (stereo not shown) [ALDHI-2043, 7-[2-[2-(3-fluorophenyl)pyrrolidin-1-yl]ethoxy]-2,2-dimethyl-4H-1,4-benzoxazin-3-one]	1 to 10 µM	≥ 100 µM
Cc1nc(C2CCCN2CCOc2ccc3c(c2)CCC(=O)N3)cs1 (stereo not shown) [ALDHI-2033, 6-[2-[2-(2-methylthiazol-4-yl)pyrrolidin-1-yl]ethoxy]-3,4-dihydro-1H-quinolin-2-one]	≥ 100 µM	≥ 100 µM
O=C1CCc2cc(NC(=O)c3scnc3-c3ccccc3F)ccc2N1 [ALDHI-1021, 4-(2-fluorophenyl)-N-(2-oxo-3,4-dihydro-1H-quinolin-6-yl)thiazole-5-carboxamide]	1 to 10 µM	≥ 100 µM
CN(CCOc1ccc2c(c1)CCC(=O)N2)Cc1cccnc1 [ALDHI-3010, 6-[2-[methyl(3-pyridylmethyl)amino]ethoxy]-3,4-dihydro-1H-quinolin-2-one]	10 to 100 µM	10 to 100 µM
O=C1CCc2cc(OCCN3CC(F)CC3c3cccc(F)c3)ccc2N1 (stereo not shown) [ALDHI-2052, 6-[2-[4-fluoro-2-(3-fluorophenyl)pyrrolidin-1-yl]ethoxy]-3,4-dihydro-1H-quinolin-2-one]	0.1 to 1 µM	≥ 100 µM
Cc1cccc(C2CCCN2CCOc2ccc3c(c2)CCC(=O)N3)c1 (stereo not shown) [ALDHI-2011, 6-[2-[2-(m-tolyl)pyrrolidin-1-yl]ethoxy]-3,4-dihydro-1H-quinolin-2-one]	10 to 100 µM	≥ 100 µM
Cc1noc(-c2ccccc2C(=O)Nc2ccc3c(c2)CCC(=O)N3)n1 [ALDHI-1008, 2-(3-methyl-1,2,4-oxadiazol-5-yl)-N-(2-oxo-1,2,3,4-tetrahydroquinolin-6-yl)benzamide]	1 to 10 µM	≥ 100 µM
O=c1ccc2cc(OCCN3CCCC3c3cccc(F)c3)ccc2[nH]1 (stereo not shown) [ALDHI-2022, 6-[2-[2-(3-fluorophenyl)pyrrolidin-1-yl]ethoxy]-1H-quinolin-2-one]	1 to 10 µM	≥ 100 µM
CN(C)c1nc(-c2cccc(F)c2)c(C(=O)Nc2ccc3c(c2)CCC(=O)N3)s1 [ALDHI-1002, 2-(dimethylamino)-4-(3-fluorophenyl)-N-(2-oxo-3,4-dihydro-1H-quinolin-6-yl)thiazole-5-carboxamide]	1 to 10 µM	≥ 100 µM
O=C1CCc2cc(OCCN3CCCCC3c3cccc(F)c3)ccc2N1 (stereo not shown) [ALDHI-2038, 6-[2-[2-(3-fluorophenyl)-1-piperidyl]ethoxy]-3,4-dihydro-1H-quinolin-2-one]	1 to 10 µM	10 to 100 µM
O=C1CCc2cc(OCCN3CCCC3c3cccc(F)c3)c(F)cc2N1 (stereo not shown) [ALDHI-2050, 7-fluoro-6-[2-[2-(3-fluorophenyl)pyrrolidin-1-yl]ethoxy]-3,4-dihydro-1H-quinolin-2-one]	1 to 10 µM	≥ 100 µM
